Experimental data taken from PMC4775225, “Bromodomain inhibition of the transcriptional coactivators CBP/EP300 as a therapeutic strategy to target the IRF4 network in multiple myeloma” (eLife, 2016).

What was measured:
[1] = biological target: T1, CBP bromodomain (amino acids 1082–1197) (Homo sapiens, UniProt Q92793); test: AlphaLISA, acetylated peptide binding to CBP bromodomain; conditions: isolated CBP bromodomain, H4-TetraAc-biotin peptide; n ≥ 2 independent replicates
T1 construct: His-Flag-tagged CBP bromodomain (amino acids 1082–1197)
T1 sequence (Q92793 1082-1197): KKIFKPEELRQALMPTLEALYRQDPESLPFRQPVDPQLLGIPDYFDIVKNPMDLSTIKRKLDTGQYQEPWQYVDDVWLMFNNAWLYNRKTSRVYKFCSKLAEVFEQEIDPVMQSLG
Method: (§1) Compound at varying concentrations were dispensed into 384 well Proxiplates (Perkin Elmer) using Echo technology (Labcyte, Inc.; Sunnyvale, CA). For CBP assays, 0.5 μM His-Flag-tagged CBP bromodomain (amino acids 1082–1197) was incubated with 0.003 μM H4-TetraAc-biotin for 20 min at room temperature in 1x reaction buffer (50 mM HEPES pH 7.5, 1 mM TCEP, 0.069 mM Brij-35, 150 mM NaCl, and 0.1 mg/ml BSA). Streptavidin acceptor beads and nickel donor beads (Perkin Elmer) were added to 15 μg/ml with a Combi Multidrop dispenser. Plates were sealed and incubated at 90 min in the dark at room temperature, and plates were read on an Envision plate reader (Perkin Elmer) according to manufacturer’s instructions. For the BET assays, the protocol was similar except that BET family bromodomains were used at 0.03 μM (BRD4-BD1) and incubated with 0.2 μM H4-TetraAc-biotin for 20 min in reaction buffer (40 mM HEPES pH7.0, 1 mM DTT, 0.069 mM Brij-35, 40 mM NaCl, and 0.1 mg/ml BSA). Streptavidin donor beads and Anti-Flag Acceptor beads (Perkin Elmer) were added to 10 μg/ml, and then plates were sealed and incubated in the dark for 60 min prior to reading on the Envision.

[2] = biological target: T2, first bromodomain of BRD4 (BRD4-BD1) (Homo sapiens, UniProt O60885); test: AlphaLISA, acetylated peptide binding to BRD4-BD1; conditions: BRD4-BD1, H4-TetraAc-biotin peptide; n ≥ 2 independent replicates
T2 construct: the first bromodomain of BRD4 (BRD4-BD1)
Method: as §1

[3] = biological target: T3, full length BRD4 ZsGreen fusion protein (Homo sapiens, UniProt O60885); test: Bromodomain chromatin release assay, BRD4 (U2OS, high content imaging); type: cell-based; conditions: 2 hr, n = 2 biological replicates ± SEM, read-out: IC50 (μM), BRD4 chromatin release (EC50)
T3 construct: CBP: CBP-bromodomain/BRD9; BRD4: full length BRD4; expressed in transfected cells
Method: As described previously ([Huang et al., 2014]), this assay monitors the compound-dependent release and aggregation of a fusion protein consisting of a bromodomain and the fluorescent protein ZsGreen. For the BRD4 chromatin release assay, U2OS cells capable of inducibly expressing the full-length BRD4 protein in fusion with ZsG were generated using the pLVT3G/ZsGreen-BRD4/TO3G vector and maintained in blasticidin at 15 μg/ml. […] Therefore, the bromodomain (BD) of CBP was cloned into full length BRD9 (replacing the BRD9 BD) in frame with a ZsGreen fluorescent tag (ZsG). U2OS cells capable of inducibly expressing the ZsGreen-CBPBD fusion protein were generated by lentiviral delivery of the pLVT3G/BRD9-ZsG-CBPBD/TO3G vector, which contains both the inducible fusion protein and the tet transactivator. Cells were selected and maintained in the presence of 15 μg/ml blasticidin. 5000 cells/well were seeded in 384-well imaging plates in the presence of 2 μg/ml doxycycline to induce the expression of ZsG-fusion proteins. After 16 hr of incubation with doxycycline, fresh media containing serial dilution of compounds were added to the cells for 2 hr at 37°C. Cells were fixed with 4% paraformaldehyde (PFA) dissolved in PBS for 15 min at room temperature. Images of cells were acquired using ImageXpress Micro (Molecular Devices, Inc.; Sunnyvale, CA) and processed with the Transfluor Module of MetaXpress software. Average pits per cell values were obtained from four adjacent images in each well with two technical replicates for each compound concentration. Dose-response curves were generated by plotting the average pits per cell values at each dose and EC50 values were calculated by a four-parameter non-linear regression model in GraphPad Prism.

[4] = biological target: T4, CBP bromodomain and histone H3.3 (Homo sapiens, UniProt Q92793); test: NanoBRET, CBP bromodomain/histone H3.3 in HEK293 cells; type: cell-based; conditions: NanoBRET, 293 cells
T4 construct: NanoBRET with the isolated CBP bromodomain and histone H3.3 in 293 cells; host or cells: HEK293
T4 sequence (Q92793 1085-1192 limits assumed): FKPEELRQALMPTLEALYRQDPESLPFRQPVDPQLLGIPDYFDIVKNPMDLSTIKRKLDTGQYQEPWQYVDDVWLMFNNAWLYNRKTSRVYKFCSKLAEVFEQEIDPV
Method: NanoBRET was carried out using the NanoBRET Protein:Protein Interaction System (Promega, Inc.; Madison, WI) according to the manufacturer’s instructions. Briefly, HEK293 cells were transiently co-transfected with a vector for histone H3.3-HaloTag and a NanoLuc tagged CBP bromodomain expression construct. Transfected cells were plated in 96 -well plates in the presence or absence of ligand, then treated with dose titrations of indicated compounds. Readings were performed on an Envision Plate Reader (Perkin Elmer, Inc.; Waltham, MA) and BRET readings were calculated by dividing the acceptor emission value (600 nm) by the donor emission value (460/50 nm).

Cc1sc2c(c1C)C(c1ccc(Cl)cc1)=N[C@@H](CC(N)=O)c1nnc(C)n1-2 [CPI203]
IC50 [1]: 6.5 ± 0.64 µM | IC50 [2]: 0.05 ± 0.01 µM | EC50 [3]: 0.05 ± 0.02 µM | dose-dependent inhibition of CBP-H3.3 binding [4]: did not display dose-dependent inhibition
